Literature values in patent US20200061109A1, “ZINC CHLORIDE HYDROXIDE HAVING EXCELLENT ZINC ION SUSTAINED-RELEASABILITY AND PRODUCTION METHOD THEREFOR” (JFE MINERAL COMPANY, LTD., priority 2016, published 2020).

Tests used:
skin = conditions: in vivo

level that increases inflammatory cell infiltration of skin and significantly delays re-epithelialization (skin): not less than 15 mmol/L
SMILES: [Zn+2] [Zn^2+ ions]
concentration at which no toxicity is shown against fibroblasts (fibroblasts): no more than 500 μmol/L
